Test results as given in patent publication US11497212B2, “Substituted thiophenyl uracils, salts thereof and the use thereof as herbicidal agents” (Syngenta Crop Protection AG, priority 2017, dated 2022).

Experiments:
Type in all cases: in vivo
[1] = tested on: Oryza sativa; assay: Crop compatibility post-emergence (greenhouse pot trial); conditions: application rate 5 g/ha
Procedure: (§1) Seeds of mono- and dicotyledonous weed plants and crop plants are laid out in sandy loam soil in plastic or wood-fiber pots, covered with earth and grown under controlled growth conditions in a greenhouse. 2 to 3 weeks after sowing, the trial plants are treated at the one-leaf stage. The compounds of the invention formulated in the form of wettable powders (WP) or emulsion concentrates (EC) were then sprayed onto the green parts of the plant as an aqueous suspension or emulsion with addition of 0.5% additive at a water application rate equivalent to 600 L/ha. After the trial plants had stood for about 3 weeks in the greenhouse, under optimal growth conditions, the effect of the preparations was scored visually by comparison with untreated controls. For example, 100% efficacy=plants have died, 0% efficacy=like control plants.
(§2) Crop plant compatibilities were also scored correspondingly.
(§3) The effects observed are reported here on selected crop plants by comparison with the untreated controls (values in %).

[2] = tested on: Triticum aestivum; assay: as above
Procedure: as §1, §2, §3

[3] = tested on: Digitaria sanguinalis; assay: Herbicidal action post-emergence (greenhouse pot trial); conditions: application rate 20 g/ha
Procedure: as §1, with “plants. Tables A1 to A15 below show the efficacies of selected compounds of the general formula (I) according to tables I.1 to I.60 on various harmful plants and an application rate corresponding to 80 g/ha or lower that were obtained by the aforementioned trial method.” for “plants.”

[4] = tested on: Abutilon theophrasti; assay: as above; conditions: application rate 20 g/ha, scored visually after about 3 weeks vs untreated controls
Procedure: as §1, with “plants. Tables A1 to A15 below show the efficacies of selected compounds of the general formula (I) according to tables I.1 to I.60 on various harmful plants and an application rate corresponding to 80 g/ha or lower that were obtained by the aforementioned trial method.” for “plants.”

[5] = tested on: Pharbitis purpurea; assay: as above; conditions: application rate 20 g/ha
Procedure: as §1, with “plants. Tables A1 to A15 below show the efficacies of selected compounds of the general formula (I) according to tables I.1 to I.60 on various harmful plants and an application rate corresponding to 80 g/ha or lower that were obtained by the aforementioned trial method.” for “plants.”

[6] = tested on: Veronica persica; assay: as above; conditions: application rate 20 g/ha
Procedure: as §1, with “plants. Tables A1 to A15 below show the efficacies of selected compounds of the general formula (I) according to tables I.1 to I.60 on various harmful plants and an application rate corresponding to 80 g/ha or lower that were obtained by the aforementioned trial method.” for “plants.”

[7] = tested on: Amaranthus retroflexus; assay: as above; conditions: application rate 20 g/ha, scored visually after about 3 weeks vs untreated controls
Procedure: as §1, with “plants. Tables A1 to A15 below show the efficacies of selected compounds of the general formula (I) according to tables I.1 to I.60 on various harmful plants and an application rate corresponding to 80 g/ha or lower that were obtained by the aforementioned trial method.” for “plants.”

[8] = tested on: Setaria viridis; assay: as above; conditions: application rate 20 g/ha, scored visually after about 3 weeks vs untreated controls
Procedure: as §1, with “plants. Tables A1 to A15 below show the efficacies of selected compounds of the general formula (I) according to tables I.1 to I.60 on various harmful plants and an application rate corresponding to 80 g/ha or lower that were obtained by the aforementioned trial method.” for “plants.”

[9] = tested on: Echinochloa crus-galli; assay: as above; conditions: application rate 20 g/ha, scored visually after about 3 weeks vs untreated controls
Procedure: as §1, with “plants. Tables A1 to A15 below show the efficacies of selected compounds of the general formula (I) according to tables I.1 to I.60 on various harmful plants and an application rate corresponding to 80 g/ha or lower that were obtained by the aforementioned trial method.” for “plants.”

[10] = tested on: Viola tricolor; assay: as above; conditions: application rate 20 g/ha
Procedure: as §1, with “plants. Tables A1 to A15 below show the efficacies of selected compounds of the general formula (I) according to tables I.1 to I.60 on various harmful plants and an application rate corresponding to 80 g/ha or lower that were obtained by the aforementioned trial method.” for “plants.”

[11] = tested on: Polygonum convolvulus; assay: as above; conditions: application rate 20 g/ha, scored visually after about 3 weeks vs untreated controls
Procedure: as §1, with “plants. Tables A1 to A15 below show the efficacies of selected compounds of the general formula (I) according to tables I.1 to I.60 on various harmful plants and an application rate corresponding to 80 g/ha or lower that were obtained by the aforementioned trial method.” for “plants.”

[12] = tested on: Stellaria media; assay: as above; conditions: application rate 20 g/ha, scored visually after about 3 weeks vs untreated controls
Procedure: as §1, with “plants. Tables A1 to A15 below show the efficacies of selected compounds of the general formula (I) according to tables I.1 to I.60 on various harmful plants and an application rate corresponding to 80 g/ha or lower that were obtained by the aforementioned trial method.” for “plants.”

[13] = tested on: Matricaria inodora; assay: as above; conditions: application rate 20 g/ha, scored visually after about 3 weeks vs untreated controls
Procedure: as §1, with “plants. Tables A1 to A15 below show the efficacies of selected compounds of the general formula (I) according to tables I.1 to I.60 on various harmful plants and an application rate corresponding to 80 g/ha or lower that were obtained by the aforementioned trial method.” for “plants.”

Cc1c(C(F)(F)F)n(C)c(=O)n(-c2cc(SCC(C)(C)C(=O)OCC3CCCO3)c(Cl)cc2F)c1=O (centres unmarked) [I.54-71]
80%: Digitaria sanguinalis (Efficacy in %) [3] | Echinochloa crus-galli (Efficacy in %) [9] | Stellaria media (Efficacy in %) [12]
20%: Triticum aestivum (Efficacy in %) ([2]; application rate 5 g/ha)
100%: Abutilon theophrasti (Efficacy in %) [4] | Pharbitis purpurea (Efficacy in %) [5] | Veronica persica (Efficacy in %) [6] | Amaranthus retroflexus (Efficacy in %) [7] | Setaria viridis (Efficacy in %) [8] | Viola tricolor (Efficacy in %) [10] | Polygonum convolvulus (Efficacy in %) [11]
0%: Oryza sativa (Efficacy in %) [1]

CCC(C)C(Sc1cc(-n2c(=O)cc(C(F)(F)F)n(C)c2=O)c(F)cc1Cl)C(=O)OCC1CCOC1 (centres unmarked) [I.5-72]
100%: Digitaria sanguinalis (Efficacy in %) [3] | Abutilon theophrasti (Efficacy in %) [4] | Pharbitis purpurea (Efficacy in %) [5] | Veronica persica (Efficacy in %) [6] | Amaranthus retroflexus (Efficacy in %) [7] | Viola tricolor (Efficacy in %) [10]
20%: Triticum aestivum (Efficacy in %) ([2]; application rate 20 g/ha)
80%: Setaria viridis (Efficacy in %) [8]
90%: Echinochloa crus-galli (Efficacy in %) [9] | Polygonum convolvulus (Efficacy in %) [11] | Matricaria inodora (Efficacy in %) [13]

Cn1c(C(F)(F)F)cc(=O)n(-c2cc(SCC(C)(C)C(=O)OCC3CCCS3)c(Cl)cc2F)c1=O (centres unmarked) [I.48-81]
100%: Digitaria sanguinalis (Efficacy in %) [3] | Abutilon theophrasti (Efficacy in %) [4] | Pharbitis purpurea (Efficacy in %) [5] | Veronica persica (Efficacy in %) [6] | Amaranthus retroflexus (Efficacy in %) [7] | Viola tricolor (Efficacy in %) [10] | Polygonum convolvulus (Efficacy in %) [11] | Stellaria media (Efficacy in %) [12] | Matricaria inodora (Efficacy in %) [13]
90%: Echinochloa crus-galli (Efficacy in %) [9]
20%: Triticum aestivum (Efficacy in %) ([2]; application rate 20 g/ha)

Cn1c(C(F)(F)F)cc(=O)n(-c2cc(SCC(C)(C)C(=O)OCC3CCCCO3)c(Cl)cc2F)c1=O (centres unmarked) [I.48-91]
20%: Triticum aestivum (Efficacy in %) ([2]; application rate 5 g/ha)
100%: Digitaria sanguinalis (Efficacy in %) [3] | Abutilon theophrasti (Efficacy in %) [4] | Pharbitis purpurea (Efficacy in %) [5] | Veronica persica (Efficacy in %) [6] | Amaranthus retroflexus (Efficacy in %) [7] | Echinochloa crus-galli (Efficacy in %) [9] | Viola tricolor (Efficacy in %) [10] | Polygonum convolvulus (Efficacy in %) [11] | Stellaria media (Efficacy in %) [12] | Matricaria inodora (Efficacy in %) [13]

CCC(Sc1cc(-n2c(=O)cc(C(F)(F)F)n(C)c2=O)c(F)cc1Cl)C(=O)OCC1CCCS1 (centres unmarked) [I.2-81]
20%: Triticum aestivum (Efficacy in %) ([2]; application rate 20 g/ha)
100%: Digitaria sanguinalis (Efficacy in %) [3] | Abutilon theophrasti (Efficacy in %) [4] | Pharbitis purpurea (Efficacy in %) [5] | Veronica persica (Efficacy in %) [6] | Amaranthus retroflexus (Efficacy in %) [7] | Setaria viridis (Efficacy in %) [8] | Echinochloa crus-galli (Efficacy in %) [9] | Viola tricolor (Efficacy in %) [10] | Polygonum convolvulus (Efficacy in %) [11] | Stellaria media (Efficacy in %) [12] | Matricaria inodora (Efficacy in %) [13]

CC(Sc1cc(-n2c(=O)cc(C(F)(F)F)n(C)c2=O)c(F)cc1Cl)C(=O)OCCOCc1ccccc1 (centres unmarked) [I.1-6]
100%: Digitaria sanguinalis (Efficacy in %) [3] | Abutilon theophrasti (Efficacy in %) [4] | Pharbitis purpurea (Efficacy in %) [5] | Veronica persica (Efficacy in %) [6] | Amaranthus retroflexus (Efficacy in %) [7] | Setaria viridis (Efficacy in %) [8] | Viola tricolor (Efficacy in %) [10] | Polygonum convolvulus (Efficacy in %) [11] | Matricaria inodora (Efficacy in %) [13]
90%: Echinochloa crus-galli (Efficacy in %) [9] | Stellaria media (Efficacy in %) [12]
0%: Oryza sativa (Efficacy in %) [1]

CCC(C)C(Sc1cc(-n2c(=O)cc(C(F)(F)F)n(C)c2=O)c(F)cc1Cl)C(=O)OCC1CCCO1 (centres unmarked) [I.5-71]
90%: Setaria viridis (Efficacy in %) [8] | Echinochloa crus-galli (Efficacy in %) [9]
80%: Stellaria media (Efficacy in %) [12]
10%: Triticum aestivum (Efficacy in %) ([2]; application rate 20 g/ha)
100%: Digitaria sanguinalis (Efficacy in %) [3] | Abutilon theophrasti (Efficacy in %) [4] | Pharbitis purpurea (Efficacy in %) [5] | Veronica persica (Efficacy in %) [6] | Amaranthus retroflexus (Efficacy in %) [7] | Viola tricolor (Efficacy in %) [10] | Polygonum convolvulus (Efficacy in %) [11] | Matricaria inodora (Efficacy in %) [13]

CC(C)C(Sc1cc(-n2c(=O)cc(C(F)(F)F)n(C)c2=O)c(F)cc1Cl)C(=O)OCC1CCOC1 (centres unmarked) [I.6-72]
80%: Echinochloa crus-galli (Efficacy in %) [9]
100%: Digitaria sanguinalis (Efficacy in %) [3] | Abutilon theophrasti (Efficacy in %) [4] | Pharbitis purpurea (Efficacy in %) [5] | Veronica persica (Efficacy in %) [6] | Amaranthus retroflexus (Efficacy in %) [7] | Viola tricolor (Efficacy in %) [10] | Polygonum convolvulus (Efficacy in %) [11] | Matricaria inodora (Efficacy in %) [13]
20%: Triticum aestivum (Efficacy in %) ([2]; application rate 5 g/ha)
90%: Setaria viridis (Efficacy in %) [8] | Stellaria media (Efficacy in %) [12]

CC(Sc1cc(-n2c(=O)cc(C(F)(F)F)n(C)c2=O)c(F)cc1Cl)C(=O)OCCOC(F)(F)F (centres unmarked) [I.1-41]
90%: Matricaria inodora (Efficacy in %) [13]
20%: Triticum aestivum (Efficacy in %) ([2]; application rate 20 g/ha)
100%: Digitaria sanguinalis (Efficacy in %) [3] | Abutilon theophrasti (Efficacy in %) [4] | Pharbitis purpurea (Efficacy in %) [5] | Veronica persica (Efficacy in %) [6] | Amaranthus retroflexus (Efficacy in %) [7] | Setaria viridis (Efficacy in %) [8] | Echinochloa crus-galli (Efficacy in %) [9] | Viola tricolor (Efficacy in %) [10] | Polygonum convolvulus (Efficacy in %) [11]

CC(Sc1cc(-n2c(=O)cc(C(F)(F)F)n(C)c2=O)c(F)cc1Cl)C(=O)OC1CCSC1 (centres unmarked) [I.1-123]
20%: Triticum aestivum (Efficacy in %) ([2]; application rate 20 g/ha)
100%: Abutilon theophrasti (Efficacy in %) [4] | Pharbitis purpurea (Efficacy in %) [5] | Veronica persica (Efficacy in %) [6] | Amaranthus retroflexus (Efficacy in %) [7] | Setaria viridis (Efficacy in %) [8] | Echinochloa crus-galli (Efficacy in %) [9] | Viola tricolor (Efficacy in %) [10] | Polygonum convolvulus (Efficacy in %) [11] | Stellaria media (Efficacy in %) [12] | Matricaria inodora (Efficacy in %) [13]
80%: Digitaria sanguinalis (Efficacy in %) [3]

CC(C)=C(Sc1cc(-n2c(=O)cc(C(F)(F)F)n(C)c2=O)c(F)cc1Cl)C(=O)OCC1CCOC1 (centres unmarked) [I.42-72]
90%: Echinochloa crus-galli (Efficacy in %) [9] | Stellaria media (Efficacy in %) [12]
100%: Digitaria sanguinalis (Efficacy in %) [3] | Abutilon theophrasti (Efficacy in %) [4] | Pharbitis purpurea (Efficacy in %) [5] | Veronica persica (Efficacy in %) [6] | Amaranthus retroflexus (Efficacy in %) [7] | Setaria viridis (Efficacy in %) [8] | Viola tricolor (Efficacy in %) [10] | Polygonum convolvulus (Efficacy in %) [11] | Matricaria inodora (Efficacy in %) [13]
20%: Triticum aestivum (Efficacy in %) ([2]; application rate 20 g/ha)
